Test results as given in ChEMBL document CHEMBL1154486, “Synthesis and evaluation of in vitro anti-tuberculosis activity of N-substituted glycolamides” (2009).
Converted amounts (≈) assume the structure as drawn.

Tested on: Mycobacterium tuberculosis
Assay: Antimycobacterial activity against Mycobacterium tuberculosis H37Rv ATCC 27294 by microplate alamar blue assay
Format: functional

Work on `CC(CO)(CO)NC(=O)CO` yielded an MIC of 67.5 µg/mL (≈ 414 µM).
`O=C(CO)N1CCCC1` was tested, and the MIC was 25.5 µg/mL (≈ 197 µM).
`CCC(CO)NC(=O)CO` (centres undefined) showed an MIC of 29.5 µg/mL (≈ 200 µM).
Work on `O=C(CO)NN1CCOCC1` yielded an MIC of 57 µg/mL (≈ 356 µM).
For `O=C(CO)N1CCN(CCO)CC1`, the MIC was 14.2 µg/mL (≈ 75.7 µM).
`O=C(CO)NCCc1ccccc1` showed an MIC of 74 µg/mL (≈ 413 µM).
`O=C(CO)N1CCN(C(=O)CO)CC1` gave an MIC of 15.8 µg/mL (≈ 77.9 µM).
With `CC[C@@H](CO)NCCN[C@@H](CC)CO` [ETHAMBUTOL] the MIC was 5 µg/mL (≈ 24.5 µM).
`O=C(CO)N(CCO)CCO` showed an MIC of 12.5 µg/mL (≈ 76.6 µM).
Work on `O=C(CO)N1CCOCC1` yielded an MIC of 13.8 µg/mL (≈ 94.7 µM).
`O=C(CO)N1CCCCC1` was tested, and the MIC was 38.8 µg/mL (≈ 271 µM).
With `O=C(CO)NCCO` the MIC was 87.5 µg/mL (≈ 735 µM).
`O=C(CO)N1CCCC(O)C1` (centres undefined) was tested, and the MIC was 60 µg/mL (≈ 377 µM).
For `O=C(CO)N1CCC(O)CC1`, the MIC was 33.2 µg/mL (≈ 209 µM).
